Results as given in ChEMBL document CHEMBL1138323 (J Med Chem, 2007).
In brackets after ≈: the same amount, converted by molar mass.

Assays:
Rattus norvegicus [1] = species on record: Rattus norvegicus; assay: Anticonvulsant activity in Sprague-Dawley rat by maximal electroshock seizure test; type: functional
Rattus norvegicus [2] = assay: Anticonvulsant activity in Sprague-Dawley rat by subcutaneous pentylenetetrazole test; type: functional; conditions: sc
[3] = Neurotoxicity in Sprague-Dawley rat by rotarod test; type: toxicity, organism-based; conditions: in vivo
Rattus norvegicus [4] = species on record: Rattus norvegicus; assay: Protective index, ratio of TD50 for Sprague-Dawley rat by rotarod test to ED50 for Sprague-Dawley rat by MES test; type: functional
Rattus norvegicus [5] = species on record: Rattus norvegicus; assay: Protective index, ratio of TD50 for Sprague-Dawley rat by rotarod test to ED50 for Sprague-Dawley rat by scMET test; type: functional
Mus musculus [6] = species on record: Mus musculus; assay: Anticonvulsant activity in Albino CF1 mouse by 6-Hz psychomotor seizure test at 32 mA current; type: functional
Mus musculus [7] = species on record: Mus musculus; assay: Anticonvulsant activity in Albino CF1 mouse by 6-Hz psychomotor seizure test at 44 mA current; type: functional
[8] = Neurotoxicity in Albino CF1 mouse by rotarod test; type: toxicity, organism-based; conditions: in vivo
Mus musculus [9] = species on record: Mus musculus; assay: Protective index, ratio of TD50 for Albino CF1 mouse to ED50 for Albino CF1 mouse by 6-Hz psychomotor seizure test at 32 mA current; type: functional
Mus musculus [10] = species on record: Mus musculus; assay: Protective index, ratio of TD50 for Albino CF1 mouse to ED50 for Albino CF1 mouse by 6-Hz psychomotor seizure test at 44 mA current; type: functional
Mus musculus [11] = assay: Teratogenic effect in Swiss Webster Vancouver mouse assessed as embryo lethality at 205 mg/kg, ip; type: toxicity, organism-based; set-up: dose 205 mg/kg, route intraperitoneal; conditions: in vivo
Mus musculus [12] = assay: Teratogenic effect in Swiss Webster Vancouver mouse assessed as embryo lethality at 503 mg/kg, ip; type: toxicity, organism-based; set-up: dose 503 mg/kg, route intraperitoneal; conditions: in vivo
[13] = Teratogenic effect in Swiss Webster Vancouver mouse assessed as embryo lethality at 336 mg/kg, ip; type: toxicity, organism-based; set-up: dose 336 mg/kg, route intraperitoneal; conditions: in vivo, read-out: Activity
Mus musculus [14] = assay: Teratogenic effect in Swiss Webster Vancouver mouse assessed as exencephaly at 205 mg/kg, ip; type: toxicity, organism-based; set-up: dose 205 mg/kg, route intraperitoneal; conditions: in vivo
Mus musculus [15] = assay: Teratogenic effect in Swiss Webster Vancouver mouse assessed as exencephaly at 503 mg/kg, ip; type: toxicity, organism-based; set-up: dose 503 mg/kg, route intraperitoneal; conditions: in vivo
Mus musculus [16] = assay: Teratogenic effect in Swiss Webster Vancouver mouse assessed as exencephaly at 336 mg/kg, ip; type: toxicity, organism-based; set-up: dose 336 mg/kg, route intraperitoneal; conditions: in vivo
Mus musculus [17] = assay: Teratogenic effect in Swiss Webster Vancouver mouse assessed as embryo lethality at 261 mg/kg, ip; type: toxicity, organism-based; set-up: dose 261 mg/kg, route intraperitoneal; conditions: in vivo
Mus musculus [18] = assay: Teratogenic effect in Swiss Webster Vancouver mouse assessed as embryo lethality at 167 mg/kg, ip; type: toxicity, organism-based; set-up: dose 167 mg/kg, route intraperitoneal; conditions: in vivo
Mus musculus [19] = assay: Teratogenic effect in Swiss Webster Vancouver mouse assessed as exencephaly at 261 mg/kg, ip; type: toxicity, organism-based; set-up: dose 261 mg/kg, route intraperitoneal; conditions: in vivo
Mus musculus [20] = assay: Teratogenic effect in Swiss Webster Vancouver mouse assessed as exencephaly at 167 mg/kg, ip; type: toxicity, organism-based; set-up: dose 167 mg/kg, route intraperitoneal; conditions: in vivo
Mus musculus [21] = assay: Induction of lethality in Swiss Webster Vancouver mouse dams at 3.6 mmol/kg, ip after 24 hrs; type: organism-based; conditions: in vivo
[22] = Solubility in water; type: physicochemical
Mus musculus [23] = assay: Teratogenic effect in Swiss Webster Vancouver mouse assessed as embryo lethality at 520 mg/kg, ip; type: toxicity, organism-based; set-up: dose 520 mg/kg, route intraperitoneal; conditions: in vivo
Mus musculus [24] = assay: Teratogenic effect in Swiss Webster Vancouver mouse assessed as exencephaly at 520 mg/kg, ip; type: toxicity, organism-based; set-up: dose 520 mg/kg, route intraperitoneal; conditions: in vivo
Mus musculus [25] = assay: Induction of lethality in Swiss Webster Vancouver mouse dams at 2.7 mmol/kg, ip after 24 hrs; type: organism-based; conditions: in vivo
Mus musculus [26] = assay: Induction of lethality in Swiss Webster Vancouver mouse dams at 1.8 mmol/kg, ip after 24 hrs; type: organism-based; conditions: in vivo

Compound | ED50 (Rattus norvegicus [1]) | ED50 (Rattus norvegicus [2]) | TD50 [3] | Ratio TD50/ED50 (Rattus norvegicus [4]) | Ratio TD50/ED50 (Rattus norvegicus [5]) | ED50 (Mus musculus [6]) | ED50 (Mus musculus [7]) | TD50 [8] | Ratio TD50/ED50 (Mus musculus [9]) | Ratio TD50/ED50 (Mus musculus [10]) | solubility [22] | also measured
CCC[C@H](C(=O)NC(N)=O)C(C)C | 18 mg/kg | 37 mg/kg | 118 mg/kg | 6.5 | 3.2 | 46 mg/kg | 75 mg/kg | 100 mg/kg | <6.5 | <4 | – | Activity (Mus musculus [11]): 6.8%; Activity (Mus musculus [12]): 40.7%; mortality [13]: 10.2%; Activity (Mus musculus [14]): 0.8%; Activity (Mus musculus [15]): 4.3%; Activity (Mus musculus [16]): 5.7%
CCC[C@H](C(N)=O)C(C)C | 63 mg/kg | 38 mg/kg | 83 mg/kg | 1.3 | 2.2 | – | – | – | – | – | – | –
CCCC(CCC)C(=O)NC(N)=O | 54 mg/kg | 77 mg/kg | – | 4.3 | 3 | 58 mg/kg | 105 mg/kg | > 50 mg/kg | <1.7 | – | 120 µg/mL (≈ 644 µM) | Activity (Mus musculus [17]): 41.2%; Activity (Mus musculus [18]): 12.9%; Activity (Mus musculus [19]): 13.7%; Activity (Mus musculus [20]): 0.9%; Activity (Mus musculus [21]): Toxic
CCCCCCCC(=O)NC(N)=O | > 300 mg/kg | > 300 mg/kg | > 300 mg/kg | 1.4 | 1.2 | – | – | – | – | – | < 50 µg/mL | –
CC(C)C(C(=O)NC(N)=O)C(C)C | – | – | – | 1.7 | 3.5 | 43 mg/kg | 49 mg/kg | > 50 mg/kg | <2.3 | <2 | 270 µg/mL (≈ 1450 µM) | –
CCC[C@@H](C(=O)NC(N)=O)C(C)C | 36 mg/kg | 22 mg/kg | 124 mg/kg | 3.4 | 5.6 | 43 mg/kg | 56 mg/kg | 118 mg/kg | 2.7 | 2.1 | – | Activity (Mus musculus [11]): 7.1%; Activity (Mus musculus [12]): 65.7%; mortality [13]: 54.4%; Activity (Mus musculus [14]): 0%; Activity (Mus musculus [15]): 17.5%; Activity (Mus musculus [16]): 15.4%
CC(C)C(C(N)=O)C(C)C | 51 mg/kg | 60 mg/kg | 72 mg/kg | 1.4 | 1.2 | > 100 mg/kg | > 100 mg/kg | – | – | – | – | –
CCC[C@@H](C(N)=O)C(C)C | 47 mg/kg | 22 mg/kg | 82 mg/kg | 1.7 | 3.7 | – | – | – | – | – | – | –
CCC[C@@H](C(=O)O)C(C)C | – | – | – | – | – | – | – | – | – | – | – | Activity (Mus musculus [23]): 4.3%; Activity (Mus musculus [24]): 0%
CCC[C@H](C(=O)O)C(C)C | – | – | – | – | – | – | – | – | – | – | – | Activity (Mus musculus [23]): 5.8%; Activity (Mus musculus [24]): 0%
CCCC(C(N)=O)C(C)C (racemic) | 50 mg/kg | 27 mg/kg | 87 mg/kg | 1.7 | 3.2 | – | – | – | – | – | – | –
CCCC(C(=O)O)C(C)C (racemic) | – | – | – | – | – | 149 mg/kg | – | > 300 mg/kg | >2 | – | – | Activity (Mus musculus [23]): 5.5%; Activity (Mus musculus [24]): 0%
CCCC(C(=O)NC(N)=O)C(C)C (racemic) | – | – | 95 mg/kg | 5.9 | 2.1 | 42 mg/kg | – | 50 mg/kg | <2 | <1.4 | 130 µg/mL (≈ 698 µM) | –
CCC(C)C(CC)C(=O)NC(N)=O (configuration not stated) [CAPURIDE] | – | – | 97 mg/kg | 4 | 6.9 | – | – | 50 mg/kg | <4.7 | <2.1 | 280 µg/mL (≈ 1500 µM) | Activity (Mus musculus [11]): 39%; Activity (Mus musculus [14]): 2.7%; Activity (Mus musculus [25]): Toxic; Activity (Mus musculus [26]): Toxic
CCCC(CCC)C(=O)O [VALPROIC ACID] | – | – | – | – | – | – | – | – | – | – | 1300 µg/mL (≈ 9010 µM) | –
CCCC(CCC)C(N)=O [VALPROMIDE] | – | – | – | – | – | – | – | – | – | – | 3700 µg/mL (≈ 25800 µM) | –
